Usually IC50 stands for the concentration that gives 50% inhibition.

Bounds are passed on as bounds.

The record followed here is patent US20240140958A1, “FUSED QUADRACYCLIC COMPOUNDS, COMPOSITIONS AND USES THEREOF” (Tabomedex Biosciences, Inc., priority 2021, published 2024).

T1 sequence (P49137 whole entry): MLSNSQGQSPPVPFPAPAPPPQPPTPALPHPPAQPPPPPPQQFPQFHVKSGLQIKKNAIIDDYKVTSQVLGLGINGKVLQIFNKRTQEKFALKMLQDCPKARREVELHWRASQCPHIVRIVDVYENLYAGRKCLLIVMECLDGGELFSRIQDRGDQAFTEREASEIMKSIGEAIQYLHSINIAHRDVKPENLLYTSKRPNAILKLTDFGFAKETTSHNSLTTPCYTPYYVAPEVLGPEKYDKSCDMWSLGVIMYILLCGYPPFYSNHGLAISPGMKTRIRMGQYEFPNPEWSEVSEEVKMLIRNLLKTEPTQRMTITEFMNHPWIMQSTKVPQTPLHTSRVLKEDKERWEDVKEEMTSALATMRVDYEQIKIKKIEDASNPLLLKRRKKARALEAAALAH

In one experiment the test system is THP-1 cells. Briefly: THP-1 cell assay: LPS-stimulated pSer78-Hsp27 ELISA. The class given is cell-based. The note with it: Homo sapiens, PMA-differentiated THP-1 cells, compound 60 min before 20 ng/mL LPS for 30 min. The text has this: Materials and Reagents for Measuring Activity in THP-1 Cells: • 1) THP-1 cells (Cell bank of Shanghai) • 2) PMA (Sigma, Cat.No. P1585) • 3) LPS (Sigma, Cat.No. L4516) • 4) 96-well tissue-culture treated plate (Grenier, Cat.No. 655180) • 5) FBS (Thermofisher, Cat.No. 10100147) • 6) Complete EDTA-free protease inhibitor Cocktail (Roche, Cat.No. 4693132001) • 7) PhosSTOP (Roche, Cat.No. 4906845001) • 8) Phosphor-Hsp27 (Ser78) Sandwich Elisa kit (CST, Cat.No. 7295)
Cell Assay Procedure: • 1) Day 0: THP-1 cells are seeded at 50K/well in complete media (1640+10% FBS+50 μM β-ME)+20 ng/mL PMA in 96-well plate • 2) Day 1: PMA containing media is removed after 24 h incubation (37° C./5% CO2), and replaced with complete growth media. Cells are incubated an additional 48 h to recover. • 3) Day 3: Cells are incubated with or without compounds at indicated concentrations for 60 min, prior to addition of 20 ng/mL LPS. Cells are stimulated for 30 min with LPS, washed 1× with ice cold PBS, lysed on ice in Lysis buffer provided in ELISA kit with Roche protease & phosphatase inhibitors. Extracts are clarified by refrigerated centrifugation & stored at −80° C. until pHsp27/total Hsp27 ELISAs • 4) Day 3 or Day 4: Cell Signaling Technology ELISA is run for pSer78-Hsp27 on lysates diluted to approximately 2.5 μg/well. • 5) The absorbance at 450 nm was read in a SpectraMax plus plate reader (Molecular Devices). Data was processed using GraphPad prism 8.0.
`[2H]C([2H])([2H])N(C[C@@H]1CCN1C(=O)c1ccc2c(c1)Cn1cc(-c3ccc(C#N)cc3)cc1-c1nccn1-2)C([2H])([2H])[2H]` [Example 120, (S)-4-(7-(2-((Bis(methyl-d3)amino)methyl)azetidine-1-carbonyl)-9H-benzo[e]imidazo[2,1-c]pyrrolo[1,2-a][1,4]diazepin-12-yl)benzonitrile]: the IC50 is below 50 nM.

The next experiment concerns the target T1, MAPKAPK2 Recombinant Human Protein (Homo sapiens, UniProt P49137).
T1 construct: purchased ThermoFisher pv3317
Briefly: MK2 kinase assay (Z'-LYTE kinase assay kit). The note with it: inhibition of MK2 biochemical activity; 90 min incubation at room temperature. On the procedure: Materials and Reagents for Measuring Inhibition of MK2 Biochemical Activity: • 1) Assay plate: 384 Well Low Volume Black Round Bottom Polystyrene NBS Microplate (Corning, Cat.No. 4514) • 2) MK2 kinase assay kit: Z' LYTE KINASE ASSAY KIT (ThermoFisher, Cat.No. pv3177) • 3) MAPKAPK2 Recombinant Human Protein (ThermoFisher, Cat.No. pv3317) • 4) DMSO (Vetec, Cat.No. V900090) • 5) DTT (Sigma, Cat.No. D0632)
MK2 Kinase Assay Procedure: • 1) Dispense 5 μl Kinase/Peptide Mixture to each wells of 384-well plate • 2) Add 2.5 μl 4× Test Compound to each well • 3) Add 2.5 μl 4× ATP Solution to each well • 4) After 90 minutes incubation at room temperature, add 5 μl Development Solution to each well • 5) After 60 minutes incubation at room temperature, add 5 μl stop Solution to each well • 6) Measure the Coumarin (Ex. 400 nm, Em. 445 nm) and Fluorescein (Ex. 400 nm, Em. 520 nm) emission signals on an Envision plate reader (PerkinElmer)
`CN1CCN2C(=O)N(c3ccc4c(c3)Cn3cc(-c5ccc(C#N)cc5)cc3-c3nccn3-4)C[C@H]2C1` [Example 60, (R)-4-(7-(7-Methyl-3-oxohexahydroimidazo[1,5-a]pyrazin-2(3H)-yl)-9H-benzo[e]imidazo[2,1-c]pyrrolo[1,2-a][1,4]diazepin-12-yl)benzonitrile]: the IC50 was below 50 nM.

For the molecule `CC1(C2CC(=O)N(c3ccc4c(c3)Cn3cc(-c5ccc(C#N)cc5)cc3-c3nccn3-4)C2)CCN1` (stereo not shown) [Example 62, 4-(7-(4-(2-methylazetidin-2-yl)-2-oxopyrrolidin-1-yl)-9H-benzo[e]imidazo[2,1-c]pyrrolo[1,2-a][1,4]diazepin-12-yl)benzonitrile], the half-inhibitory concentration (IC50) was below 50 nM.

Take `N#Cc1ccc(-c2cc3n(c2)Cc2cc(N4CC(C5(CO)COC(=O)N5)CC4=O)ccc2-n2ccnc2-3)cc1` (stereo not shown) [Example 63, 4-(7-(4-(4-(Hydroxymethyl)-2-oxooxazolidin-4-yl)-2-oxopyrrolidin-1-yl)-9H-benzo[e]imidazo[2,1-c]pyrrolo[1,2-a][1,4]diazepin-12-yl)benzonitrile]: the IC50 is 50 to 100 nM.

Consider `CC1(CN2C(=O)CN(c3ccc4c(c3)Cn3cc(-c5ccc(C#N)cc5)cc3-c3nccn3-4)C2=O)CNC1` [Example 64, 4-(7-(3-((3-Methylazetidin-3-yl)methyl)-2,4-dioxoimidazolidin-1-yl)-9H-benzo[e]imidazo[2,1-c]pyrrolo[1,2-a][1,4]diazepin-12-yl)benzonitrile], for which the IC50 is below 50 nM.

On to `CN(C)C1CCC(C(=O)Nc2ccc3c(c2)Cn2cc(-c4ccc(C#N)cc4)cc2-c2nccn2-3)C1` (stereo not shown) [Example 78], for which the IC50 lay within 50 to 100 nM.

As for `N#Cc1ccc(-c2cc3n(c2)Cc2cc(N4C[C@H](CO)NCC4=O)ccc2-n2ccnc2-3)cc1` [Example 80, (R)-4-(7-(5-(Hydroxymethyl)-2-oxopiperazin-1-yl)-9H-benzo[e]imidazo[2,1-c]pyrrolo[1,2-a][1,4]diazepin-12-yl)benzonitrile], the IC50 was in the range of 50 to 100 nM.

Take `Cc1nnc2n1-c1ccc(N3CCC(CCN(C)C)C3=O)cc1Cn1cc(-c3ccc(C#N)cc3)cc1-2` (stereo not shown) [Example 81, 4-(7-(3-(2-(Dimethylamino)ethyl)-2-oxopyrrolidin-1-yl)-3-methyl-9H-benzo[e]pyrrolo[1,2-a][1,2,4]triazolo[3,4-c][1,4]diazepin-12-yl)benzonitrile]: the IC50 was in the range of 50 to 100 nM.

Turning to `Cc1nnc2n1-c1ccc(N3C[C@@H](CN(C)C)OC3=O)cc1Cn1cc(-c3ccc(C#N)cc3)cc1-2` [Example 83], the IC50 lay within 50 to 100 nM.

Turning to `Cc1nnc2n1-c1ccc(N3CCC(CN(C)C)C3=O)cc1Cn1cc(-c3ccc(C#N)cc3)cc1-2` (stereo not shown) [Example 84], the IC50 lay within 50 to 100 nM.

For `Cc1nnc2n1-c1ccc(N3CCN(CCN(C)C)C3=O)cc1Cn1cc(-c3ccc(C#N)cc3)cc1-2` [Example 85], the IC50 was below 50 nM.

As to `CN(C)C[C@H]1CC(=O)N(c2ccc3c(c2F)Cn2cc(-c4ccc(C#N)cc4)cc2-c2nccn2-3)C1` [Example 92, (R)-4-(7-(4-((Dimethylamino)methyl)-2-oxopyrrolidin-1-yl)-8-fluoro-9H-benzo[e]imidazo[2,1-c]pyrrolo[1,2-a][1,4]diazepin-12-yl)benzonitrile], the half-inhibitory concentration (IC50) lay within 50 to 100 nM.

As to `CN1CC[C@H](NC(=O)c2ccc3c(c2)Cn2cc(-c4ccc(C#N)cc4)cc2-c2nccn2-3)C1` [Example 102], the IC50 is below 50 nM.

With `CN(C)C1CCN(C(=O)c2ccc3c(c2)Cn2cc(-c4ccc(C#N)cc4)cc2-c2nccn2-3)C1` (stereo not shown) [Example 103], the IC50 lay within 200 to 300 nM.

Turning to `CN(C)C1CN(C(=O)c2ccc3c(c2)Cn2cc(-c4ccc(C#N)cc4)cc2-c2nccn2-3)C1` [Example 104], the IC50 is 200 to 300 nM.

Consider `CN1CCCC1CNC(=O)c1ccc2c(c1)Cn1cc(-c3ccc(C#N)cc3)cc1-c1nccn1-2` (stereo not shown) [Example 106], for which the IC50 was in the range of 100 to 200 nM.

Consider `CN1CCN(C(=O)c2ccc3c(c2)Cn2cc(-c4ccc(C#N)cc4)cc2-c2nccn2-3)CC1` [Example 107], for which the IC50 is 200 to 300 nM.

For `Cc1nnc2n1CCN(C(=O)c1ccc3c(c1)Cn1cc(-c4ccc(C#N)cc4)cc1-c1nccn1-3)C2` [Example 108], the IC50 fell in the range of 200 to 300 nM.

Take `CC(C)(N)CNC(=O)c1ccc2c(c1)Cn1cc(-c3ccc(C#N)cc3)cc1-c1nccn1-2` [Example 111]: the IC50 fell in the range of 200 to 300 nM.

For the molecule `CN(C)CC1CCN(C(=O)c2ccc3c(c2)Cn2cc(-c4ccc(C#N)cc4)cc2-c2nccn2-3)C1` (stereo not shown) [Example 112, 4-(7-(3-((dimethylamino)methyl)pyrrolidine-1-carbonyl)-9H-benzo[e]imidazo [2,1-c]pyrrolo[1,2-a][1,4]diazepin-12-yl)benzonitrile], the IC50 was 50 to 100 nM.

Turning to `CN(C)C[C@H]1CCCN1C(=O)c1ccc2c(c1)Cn1cc(-c3ccc(C#N)cc3)cc1-c1nccn1-2` [Example 113], the IC50 lay in the range of 200 to 300 nM.

Regarding `CN(C)C[C@@H]1CCCN1C(=O)c1ccc2c(c1)Cn1cc(-c3ccc(C#N)cc3)cc1-c1nccn1-2` [Example 114], the IC50 lay in the range of 100 to 200 nM.

With `N#Cc1ccc(-c2cc3n(c2)Cc2cc(C(=O)NCCN4CCC4)ccc2-n2ccnc2-3)cc1` [Example 118], the half-maximal inhibitory concentration (IC50) was in the range of 100 to 200 nM.

With `CN1CC(C)(CNC(=O)c2ccc3c(c2)Cn2cc(-c4ccc(C#N)cc4)cc2-c2nccn2-3)C1` [Example 121], the IC50 lay in the range of 50 to 100 nM.

As for `CN(C)[C@H]1CC[C@H](NC(=O)c2ccc3c(c2)Cn2cc(-c4ccc(C#N)cc4)cc2-c2nccn2-3)C1` [Example 122], the IC50 was 300 to 400 nM.

On to `CN(C)[C@@H]1CC[C@@H](NC(=O)c2ccc3c(c2)Cn2cc(-c4ccc(C#N)cc4)cc2-c2nccn2-3)C1` [Example 123], for which the IC50 was in the range of 300 to 400 nM.

On to `CN(C)[C@@H]1CCCN(C(=O)c2ccc3c(c2)Cn2cc(-c4ccc(C#N)cc4)cc2-c2nccn2-3)C1` [Example 124], for which the IC50 lay within 50 to 100 nM.

As to `CN(C)[C@H]1CCCN(C(=O)c2ccc3c(c2)Cn2cc(-c4ccc(C#N)cc4)cc2-c2nccn2-3)C1` [Example 125], the IC50 lay within 50 to 100 nM.

Take `CN(C)[C@H]1C[C@@H](NC(=O)c2ccc3c(c2)Cn2cc(-c4ccc(C#N)cc4)cc2-c2nccn2-3)C1` [Example 127]: the IC50 fell in the range of 100 to 200 nM.

Regarding `CN1CC(C)(NC(=O)c2ccc3c(c2)Cn2cc(-c4ccc(C#N)cc4)cc2-c2nccn2-3)C1` [Example 129], the IC50 was in the range of 100 to 200 nM.

For `CN(C)CC(C)(C)NC(=O)c1ccc2c(c1)Cn1cc(-c3ccc(C#N)cc3)cc1-c1nccn1-2` [Example 130], the IC50 was in the range of 100 to 200 nM.

Take `CN1CCC2(CC1)CN(C(=O)c1ccc3c(c1)Cn1cc(-c4ccc(C#N)cc4)cc1-c1nccn1-3)C2` [Example 131]: the IC50 was 50 to 100 nM.

With `CN1CC(N(C)C(=O)c2ccc3c(c2)Cn2cc(-c4ccc(C#N)cc4)cc2-c2nccn2-3)C1` [Example 132, 12-(4-Cyanophenyl)-N-methyl-N-(1-methylazetidin-3-yl)-9H-benzo[e]imidazo [2,1c]pyrrolo[1,2-a][1,4]diazepine-7-carboxamide], the IC50 is 50 to 100 nM.

Take `CN[C@H]1CC[C@H](N(C)C(=O)c2ccc3c(c2)Cn2cc(-c4ccc(C#N)cc4)cc2-c2nccn2-3)C1` [Example 133]: the IC50 was in the range of 200 to 300 nM.

Turning to `CN1CC[C@@H](N(C)C(=O)c2ccc3c(c2)Cn2cc(-c4ccc(C#N)cc4)cc2-c2nccn2-3)C1` [Example 134], the IC50 fell in the range of 200 to 300 nM.

With `CN(CC1CNC1)C(=O)c1ccc2c(c1)Cn1cc(-c3ccc(C#N)cc3)cc1-c1nccn1-2` [Example 135], the 50% inhibitory concentration (IC50) fell in the range of 100 to 200 nM.

For `CN(CC(CN)CO)C(=O)c1ccc2c(c1)Cn1cc(-c3ccc(C#N)cc3)cc1-c1nccn1-2` (stereo not shown) [Example 136], the half-maximal inhibitory concentration (IC50) lay in the range of 50 to 100 nM.
